Results on two compounds are retold here after patent publication US20240108610A1, “RECTAL ADMINISTRATION OF ROFLUMILAST FOR THE TREATMENT OF CROHN'S DISEASE” (King Abdulaziz University, priority 2022, published 2024).

Marks after values point to notes of the source that are not given here.

Data set [1] concerns trinitrobenzenesulfonic acid (TNBS)-induced colitis. In words: Colonic length and macroscopic appearance in TNBS-induced chronic colitis. In kind it is in vivo, rat. The procedure:
(§1) Chronic colitis was induced by weekly rectal injections of increasing doses of TNBS over 6 weeks (15, 30, 45, 60, 60, and 60 mg from day 0 to day 35), as previously described (4,12). Briefly, after food deprivation for 24 h, rats were anesthetized with an intraperitoneal injection of 1% isoflurane. TNBS was dissolved in ethanol (50%) and instilled into the colon using a cannula (0.25 mL), and then the rats were held upside down for 3 min to prevent escape of the intracolonic TNBS. Roflumilast was dissolved in dimethyl sulfoxide and diluted in 0.5% carboxymethyl cellulose sodium to a final concentration of 5.0 mg·kg^−1·day^−1 as previously described (13). Five groups of rats (n=8) were established: normal control (NC group), TNBS-treated (TNBS group, positive control), and three TNBS-treated groups that received oral sulfasalazine (SS group, 500 mg/kg) (14), oral roflumilast (by gastric gavage, OR group, 5 mg/kg), or rectal roflumilast (RR group, 5 mg/kg). Treatments were administered once daily in a volume of 200 μL for 15 days starting 48 h after the induction of colitis (from day 37) (15), and the control rats received equal amounts of vehicle. At the end of the treatment period, the rats were evaluated with the colitis activity score. To detect the effects of the treatments on systemic inflammatory processes, blood was collected for measurements of the proinflammatory mediators TNF-α, IL-2, and IL-6. At the end of the 15-day treatment period, the rats were sacrificed by cervical dislocation, and the colon was isolated, cleaned of feces, and measured for weight and length. Colonic myeloperoxidase (MPO) activity and glutathione (GSH) and malonaldehyde (MDA) levels were measured. The colon was examined macroscopically for gross changes and microscopically in sections stained with hematoxylin and eosin (H&E), Masson trichrome, and Periodic Acid Schiff (PAS) stains as well as KI-67 and TNF-α immunostaining. After the rats were sacrificed, their colon was excised, and its length was measured. The appearance of the colon regarding edema, ulceration, and necrosis was evaluated (17).

The subject of a further data set is IL-6. In words: Serum IL-6 ELISA in TNBS-induced colitis. To be noted: means±SE, n = 8. In kind it is in vivo, rat. The procedure: as §1, with “Blood” for “After the rats were sacrificed, their colon”, “collected through cardiac puncture. The serum was obtained” for “excised,”, “stored at −80° C. until analysis. […]” for “its length was measured. The appearance of the colon regarding edema, ulceration, and necrosis was evaluated (17).”

The next data set deals with MPO. Kind of data set: Colonic MPO in colonic tissue homogenates, TNBS-induced colitis. Format: in vivo, rat. To be noted: means±SE, n = 8. The procedure: as §1, with “To detect the effects of the treatments on systemic inflammatory processes, blood was collected for measurements of the proinflammatory mediators TNF-α, IL-2, and IL-6.” left out, “measured. […]” for “measured.”, “levels of MPO (a marker of neutrophil activity), GSH (one” for “colon was examined macroscopically for gross changes and microscopically in sections stained with hematoxylin and eosin (H&E), Masson trichrome, and Periodic Acid Schiff (PAS) stains as well as KI-67 and TNF-α immunostaining. After the rats were sacrificed, their colon was excised, and its length was measured. The appearance”, “most important cellular antioxidants),” for “colon regarding edema, ulceration,”, “MDA (an indicator of lipid peroxidation) in colonic tissue homogenates were measured using the commercially available kits as previously described: MPO ELISA kit (Innovative Research) (18), GSH colorimetric assay kit (Innovative Research) (19), and MDA ELISA kit (Neobio Lab Comp., USA) (20).” for “necrosis was evaluated (17).”

For data set [2] the following is noted: oral; cited from earlier work.
The subject of a further data set is GSH. Kind of data set: Colonic GSH in colonic tissue homogenates, TNBS-induced colitis. In kind it is in vivo, rat. To be noted: oral, once daily for 15 days; SS 500 mg/kg, OR 5 mg/kg; means±SE, n = 8. The procedure: Chronic colitis was induced by weekly rectal injections of increasing doses of TNBS over 6 weeks (15, 30, 45, 60, 60, and 60 mg from day 0 to day 35), as previously described (4,12). Briefly, after food deprivation for 24 h, rats were anesthetized with an intraperitoneal injection of 1% isoflurane. TNBS was dissolved in ethanol (50%) and instilled into the colon using a cannula (0.25 mL), and then the rats were held upside down for 3 min to prevent escape of the intracolonic TNBS. Roflumilast was dissolved in dimethyl sulfoxide and diluted in 0.5% carboxymethyl cellulose sodium to a final concentration of 5.0 mg·kg^−1·day^−1 as previously described (13). Five groups of rats (n=8) were established: normal control (NC group), TNBS-treated (TNBS group, positive control), and three TNBS-treated groups that received oral sulfasalazine (SS group, 500 mg/kg) (14), oral roflumilast (by gastric gavage, OR group, 5 mg/kg), or rectal roflumilast (RR group, 5 mg/kg). […] At the end of the treatment period, the rats were evaluated with the colitis activity score. […] At the end of the 15-day treatment period, the rats were sacrificed by cervical dislocation, and the colon was isolated, cleaned of feces, and measured for weight and length. Colonic myeloperoxidase (MPO) activity and glutathione (GSH) and malonaldehyde (MDA) levels were measured. […]

Where [3] appears, read: oral, once daily for 15 days, sulfasalazine 500 mg/kg, roflumilast 5 mg/kg.
Where [4] appears, read: rectal, 5 mg/kg once daily for 15 days.
Setting [5] is: oral, once daily for 15 days, SS 500 mg/kg, OR 5 mg/kg.

With `O=C(Nc1c(Cl)cncc1Cl)c1ccc(OC(F)F)c(OCC2CC2)c1` [roflumilast], the Colonic length result in data set [1] (setting [3]) was “more improvement than rectal roflumilast”. Moreover, the values for the Colonic macroscopic appearance result in data set [1] (setting [3]) and in data set [1] (setting [4]) were “moderate to marked improvement” and “mild improvement”, respectively. The “serum level of IL-6” value in the data set on IL-6 (setting [5]) was 21.85 ± 1.00^j, k, l pg/mL; in the data set on IL-6 (setting [4]), 28.93 ± 0.50^j, k pg/mL. Also, the “colonic MPO activity” value with MPO (setting [5]) was 23.89 ± 0.92^a, b, c μ/g; in the data set with MPO (setting [4]) it was 28.17 ± 1.00^a μ/g. The bioavailability in data set [2] is reported as approximately 80%.
For the compound `O=C(O)c1cc(/N=N/c2ccc(S(=O)(=O)Nc3ccccn3)cc2)ccc1O` [sulfasalazine], in data set [1] (setting [3]), the Colonic length entry is given as “greatest effect” and the Colonic macroscopic appearance entry is reported as “marked improvement”. Also, the “serum level of IL-6” value in the data set on IL-6 (setting [5]) is on record as 16.14 ± 1.13^k, m pg/mL. Also, the “colonic MPO activity” value in the data set with MPO (setting [5]) is given as 18.38 ± 0.87^a μ/g. In the data set with GSH, the “colonic level of GSH” value is 14.73 ± 0.49^h, i mmol/mg.

The bioavailability is the share of a dose that reaches the circulation, judged against a reference dose that is usually intravenous.
